Test results from EPA's ToxValDB 9.5 (doi:10.2903/j.efsa.2015.4032).

How the values were obtained:
[1] = test system: Daphnia magna; details: chronic/long-term; duration: 21 days; reproduction
[2] = test system: Hypoaspis aculeifer; details: chronic/long-term
[3] = test system: Folsomia candida; details: chronic/long-term
[4] = test system: Pimephales promelas; details: chronic/long-term; duration: 33 days; other
[5] = test system: Apis mellifera; details: acute, mortality
[6] = test system: Rattus norvegicus
[7] = test system: Colinus virginianus
[8] = test system: Tagia sp.
[9] = test system: Bibionidae; details: chronic/long-term; duration: 28 days
[10] = test system: Aphidius rhopalosiphi; assay: LR50; higher = less toxic; details: not reported; mortality
[11] = test system: Typhlodromus pyri; assay: LR50; higher = less toxic; details: not reported; mortality

Compound: Cc1cccc2sc3nncn3c12 [2,7,8,9-Tricyclazole]
- NOEC [1]: 1.3 mg/L
- NOEC [2]: 16 mg/kg
- NOEC [3]: 32 mg/kg
- NOEC [4]: 0.743 mg/L
- LD50 ([5]; dermal): > 99 µg/piece
- LD50 ([5]; oral, unspecified): 30.9 µg/piece
- LD50 ([6]; acute, oral, F, mortality): 237 mg/kg-day
- NOAEL ([6]; chronic): 5 mg/kg-day
- LD50 ([7]; acute, oral): > 2180 mg/kg-day
- LC50 ([7]; acute, oral, diet): > 1140 mg/kg-day
- NOAEL ([7]; reproduction developmental): 27.1 mg/kg-day
- LC50 ([8]; acute, duration: 14 days, mortality): > 1000 mg/kg
- NOEC ([8]; chronic/long-term): 250 mg/kg
- NOEC [9]: 1.68 mg/L
- LR50 [10]: < 460 g/ha
- LR50 [11]: > 460 g/ha
